Measured values as given in PubChem BioAssay AID1996.
≈ marks a conversion by molar mass, not a printed value.

Settings: buffer; pH 7.4; 200.0 µM

Compared with `COc1ccccc1COC(=O)CN1C(=O)NC2(CCCCC2C)C1=O` (centres undefined), `COc1cc(C)c(NC(=O)c2cccc(S(=O)(=O)N3CCCC3)c2)cc1OC` is lower in solubility kinetic: greater than 0.0541 mg/mL for the first, 0.0325 mg/mL (≈ 80.3 µM) for the second.

First: COc1ccc(Nc2cc(C)c3c(O)cccc3n2)cc1
Second: COc1cccc(N/C=C/C(=O)c2ccc(C)cc2)c1
The solubility kinetic of the first is 9.2-fold higher: 0.0221 mg/mL (≈ 78.8 µM) for the first, 0.0024 mg/mL (≈ 8.98 µM) for the second.

`Cc1nc(SCC(=O)NCc2ccc3c(c2)OCO3)nc(C)c1C` and `O=C(NC(Cc1c[nH]c2ccccc12)C(=O)O)c1ccc2c(c1)OCO2` (centres undefined) cannot be ordered by solubility kinetic: greater than 0.0518 mg/mL for the first, greater than 0.0529 mg/mL for the second.

`CCOc1ccc(C2C3=C(CCCC3=O)OC(N)=C2[N+](=O)[O-])cc1` (centres undefined) and `CCOc1ccc(-n2ccc(=O)c(C(=O)O)n2)cc1` cannot be ordered by solubility kinetic: greater than 0.0496 mg/mL for the first, greater than 0.039 mg/mL for the second.

Compared with `O=C(NCc1ccccc1Cl)NC(=O)c1csc([N+](=O)[O-])c1`, `N#C/C(=C\c1ccccc1[N+](=O)[O-])C(=O)NCc1ccccc1` is higher in solubility kinetic: less than 0.0002 mg/mL for the first, greater than 0.0461 mg/mL for the second.

Going from `Nc1ccc(CCn2ccnc2)cc1` to `COc1ccc2[nH]c3c(=O)n(CCc4ccccc4)cnc3c2c1`, the solubility kinetic falls from greater than 0.0281 mg/mL to 0.0006 mg/mL (≈ 1.88 µM).

`COc1cc(NC(=S)N2CCN(C)CC2)cc(OC)c1` and `COc1cc(/C=C(\NC(C)=O)C(=O)N2CCCCC2)ccc1OC(C)=O` cannot be ordered by solubility kinetic: greater than 0.0443 mg/mL for the first, 0.0477 mg/mL (≈ 132 µM) for the second.

Going from `Cc1c(C(=O)N(C)Cc2cccc(F)c2)oc2c(Cl)cccc12` to `Cn1c(O)c(C(=Nc2ccc(F)cc2)c2ccccc2Cl)c(=O)n(C)c1=O`, the solubility kinetic falls from 0.0036 mg/mL (≈ 10.9 µM) to 0.0018 mg/mL (≈ 4.64 µM) (2-fold).

`COc1cc(OC)c(OC)cc1/C=C1/C(=O)N=C(N)N1C` and `COc1ccc(C(=O)NCCc2c[nH]c3ccccc23)cc1OC` are within 1.5-fold of each other in solubility kinetic: 0.0345 mg/mL (≈ 118 µM) for the first, 0.032 mg/mL (≈ 98.6 µM) for the second.

Going from `Cc1ccc(SCCOCCN2CC(C)OC(C)C2)cc1.Cl` (centres undefined) to `CCn1c(=N)n(CC(O)COc2ccc(C)cc2)c2ccccc21.Cl` (centres undefined), the solubility kinetic rises from 0.0425 mg/mL to greater than 0.0543 mg/mL.

`O=[N+]([O-])c1cccc(OCc2cn3cccnc3n2)c1` and `O=C(CCc1ccccc1)OCC(=O)c1cccc([N+](=O)[O-])c1` cannot be ordered by solubility kinetic: greater than 0.0405 mg/mL for the first, greater than 0.047 mg/mL for the second.

`Cc1ccc(C(=O)Nc2ccc3ncccc3c2)cc1` and `O=C(Nc1ccncc1)c1cc2ccccc2cc1O` are within 1.5-fold of each other in solubility kinetic: 0.0069 mg/mL (≈ 26.3 µM) for the first, 0.0056 mg/mL (≈ 21.2 µM) for the second.

`N#CCCN(C(=O)COC(=O)CCc1ccccc1)c1ccccc1` and `O=C(O)c1cccc2c1C(=O)N(Cc1ccccc1)C2` cannot be ordered by solubility kinetic: 0.0448 mg/mL (≈ 133 µM) for the first, greater than 0.0401 mg/mL for the second.

Going from `CSCc1ccc(C(=O)OCc2nc3ccccc3s2)o1` to `Cc1ccccc1C(=O)OCC(=O)NCC1COc2ccccc2O1` (centres undefined), the solubility kinetic rises from 0.0133 mg/mL (≈ 41.6 µM) to 0.0409 mg/mL (≈ 120 µM) (3.1-fold).

Going from `COc1ccc(CNC(=O)CCCSc2ccccc2)cc1` to `COc1ccc(S(=O)(=O)Nc2noc3ccccc23)cc1`, the solubility kinetic rises from 0.0024 mg/mL (≈ 7.61 µM) to 0.0421 mg/mL (≈ 138 µM) (18-fold).

Going from `COc1ccc(NC(=O)CN(C)C(=O)Cc2ccsc2)cc1` to `COc1ccc(CN(C)CC(=O)Nc2c(C)cccc2C)c(OC)c1`, the solubility kinetic rises from 0.042 mg/mL (≈ 132 µM) to greater than 0.0514 mg/mL.

Compared with `O=C(NCCCN1CCOCC1)c1cc(-c2ccco2)nc2ccccc12`, `CC(C)[C@H](NC(=O)c1ccccc1)C(=O)OCC(=O)Nc1ccc(S(=O)(=O)N2CCOCC2)cc1` is 17-fold lower in solubility kinetic: 0.0496 mg/mL (≈ 136 µM) for the first, 0.003 mg/mL (≈ 5.96 µM) for the second.

Compared with `Cc1csc(NC(=O)CCCC(=O)c2ccccc2)n1`, `Cc1ccsc1C(=O)OCC(=O)Nc1ccc(Cl)cn1` is lower in solubility kinetic: greater than 0.0433 mg/mL for the first, 0.0147 mg/mL (≈ 47.3 µM) for the second.

`CN(C(=O)CSc1cc(Cl)ccc1Cl)C1CCS(=O)(=O)C1` (centres undefined) and `Cc1nc(NC(=O)CSc2nncs2)c(Cl)cc1Cl` cannot be ordered by solubility kinetic: 0.0537 mg/mL (≈ 146 µM) for the first, greater than 0.0503 mg/mL for the second.

`COc1ccc(CN(C)C(=O)c2ccncc2)c(OC)c1` and `COc1ccc(C(=O)NCC(=O)Nc2cccc(S(=O)(=O)N3CCCC3)c2)cc1` cannot be ordered by solubility kinetic: greater than 0.0429 mg/mL for the first, 0.0601 mg/mL (≈ 144 µM) for the second.

`CC(NC(=O)CCC(=O)c1ccc(F)cc1)C1CC2CCC1C2` (centres undefined) and `O=C(NC1CCCC1)c1cc2c(=O)n3ccccc3nc2s1` are within 1.5-fold of each other in solubility kinetic: 0.0125 mg/mL (≈ 39.4 µM) for the first, 0.0112 mg/mL (≈ 35.7 µM) for the second.

Compared with `Cc1ccc(-n2c(C)c(C)c3c(NCCN(C)C)ncnc32)cc1`, `Cc1ccccc1CNc1ncnc2cc(Cl)ccc12` is 75-fold lower in solubility kinetic: 0.0374 mg/mL (≈ 116 µM) for the first, 0.0005 mg/mL (≈ 1.76 µM) for the second.

First: O=C(Nc1cccc(NC(=O)c2ccco2)n1)c1ccco1
Second: CC(=O)NCCc1nc2cc(NC(=O)c3ccccc3Cl)ccc2n1C
The solubility kinetic of the first is lower: 0.0061 mg/mL (≈ 20.5 µM) for the first, greater than 0.0556 mg/mL for the second.

`NC(=O)COC(=O)c1cccc(S(=O)(=O)N2CCCCC2)c1` and `O=C(NCC1CCCO1)c1ccccc1NS(=O)(=O)c1cccc([N+](=O)[O-])c1` (centres undefined) cannot be ordered by solubility kinetic: greater than 0.049 mg/mL for the first, greater than 0.0608 mg/mL for the second.

First: Cl.c1ccc(CCNCc2cccs2)cc1
Second: COc1ccc(-c2csc3ncn(Cc4ccccc4)c(=O)c23)cc1
The solubility kinetic of the first is 23-fold higher: 0.0326 mg/mL for the first, 0.0014 mg/mL (≈ 4.02 µM) for the second.

`Cc1nc(C(=O)N2CCCC(Nc3ccc(C)c(C)c3)C2)cs1` (centres undefined) and `Cc1ccsc1C(=O)NNC(=S)NC1CCCCC1` cannot be ordered by solubility kinetic: greater than 0.0494 mg/mL for the first, greater than 0.0446 mg/mL for the second.

First: CN(C)/C=C(\C#N)S(=O)(=O)c1ccc(Cl)cc1
Second: CC(C)(C)NC(=O)NC(=O)COC(=O)Cc1c(F)cccc1Cl
The solubility kinetic of the first is 2.4-fold higher: 0.0377 mg/mL (≈ 139 µM) for the first, 0.0156 mg/mL (≈ 45.2 µM) for the second.

`CC(=O)Nc1ccc(NC(=O)COC(=O)c2cnccn2)cc1` and `Cn1c(=O)[nH]c(=O)c2c1nc(NCCN)n2CCOc1ccccc1` cannot be ordered by solubility kinetic: greater than 0.0471 mg/mL for the first, 0.0491 mg/mL (≈ 143 µM) for the second.

Going from `Cc1cc(C(C)(C)C)cc(C)c1CCNC(=O)c1ccc[n+]([O-])c1` to `Cc1nc(N2CCOCC2)c2c3c(sc2n1)CCC3`, the solubility kinetic falls from greater than 0.049 mg/mL to 0.0344 mg/mL (≈ 125 µM).

`c1ccc(N2CCOCCOCCOCCOCCOCC2)cc1` gave a solubility kinetic greater than 0.0509 mg/mL.
